Source: patent US20240058452A1, “PHARMACEUTICAL COMPOSITION CONTAINING TEMPERATURE-RESPONSIVE IONIC LIQUID” (priority 2019, published 2024)

Legend:
[1] = Confirmation of temperature responsive property of ionic liquid (lower critical solution temperature by absorbance at 450 nm); type: physicochemical; conditions: absorbance 450 nm, heating 20° C.→95° C. (0.5° C./minute)
Protocol: (§1) Whether an ionic liquid is a temperature-responsive ionic liquid having a lower critical solution temperature (LCST-type temperature-responsive ionic liquid) is determined by measuring the absorbance of the liquid at a wavelength within a visible light region while gradually increasing the temperature and observing white turbidity, in other words, an abrupt increase in absorbance at a certain temperature caused by an increase in degree of hydrophobicity. The specific procedure is as follows. First, a mixture of an ionic liquid and water is prepared and the layer state at room temperature is observed. Then, the mixture is placed in a refrigerator of 4° C., sufficiently stirred and allowed to stand still for one hour. The state of the mixture is observed. If the layer state of the ionic liquid-water mixture at room temperature is the same as the layer state at 4° C., the mixture is increased in temperature at a rate of 0.5° C./minute within the range of 20° C. to 95° C. and the absorbance of the mixture is measured at 450 nm. Based on a change in absorbance, whether the ionic liquid thus measured is LCST-type temperature-responsive ionic liquid or not can be checked.
The obtained data of absorbance change can be analyzed by differential calculus according to Tm (nucleic acid melting temperature) analysis program to obtain the lower critical solution temperature. In contrast, if the phase state of the ionic liquid-water mixture at room temperature is different from the state at 4° C., the mixture is increased in temperature at a rate of 0.5° C./minute within the range of 5° C. to 40° C. and the absorbance of the mixture is measured at 450 nm. Based on a change in absorbance, whether the ionic liquid thus measured is LCST-type temperature-responsive ionic liquid or not can be checked.
(§2) More specifically, the temperature responsive property was examined by measuring a absorbance at 450 nm at different temperatures in the following measurement conditions to obtain a change in absorbance.
(0.5° C./minute) • Analysis method: calculation by differential calculus using Tm (nucleic acid melting temperature) analysis program
(§3) (0.5° C./minute) • Analysis method: calculation by differential calculus using Tm (nucleic acid melting temperature) analysis program.
as §3

[2] = cited from earlier work
[3] = mixture of ionic liquid and water as obtained in the synthesis
Protocol: as §1, §2

[4] = tested on: human cultured epidermal model (LabCyte EPI-MODEL12); conditions: pregabalin 10 mg/mL in 100 mmol/L aqueous solution or dispersion of the ionic liquid, 300 μL donor, 37° C., control in water 252
Protocol: A human cultured epidermal model (LabCyte EPI-MODEL12, Japan Tissue Engineering Co., Ltd.) was used. The phase on the stratum corneum side of the model was defined as a donor phase, whereas the phase on the stratum basal side of the model was defined as a receptor phase. Whether a temperature-responsive ionic liquid enhances the permeation of pregabalin from the donor phase to the receptor phase was examined. The test was carried out in an incubator of 37° C. Pregabalin was dissolved in water, or a 100 mmol/L aqueous solution or water dispersion of a temperature-responsive ionic liquid to a concentration of 10 mg/mL. Each solution (300 μL) was added to the donor phase. Twenty-four hours later, a receptor fluid was sampled and analyzed by LC-MS/MS to obtain the amount of pregabalin permeated. The Hanks' balanced salt solution was used as the receptor fluid.

[5] = tested on: human cultured epidermal model (LabCyte EPI-MODEL12); conditions: 37° C.
Protocol: A human cultured epidermal model (LabCyte EPI-MODEL12, Japan Tissue Engineering Co., Ltd.) was used. The phase on the stratum corneum side of the model was defined as a donor phase, whereas the phase on the stratum basal side of the model was defined as a receptor phase. […] The test was carried out in an incubator of 37° C. […] Each solution (300 μL) was added to the donor phase. […] The Hanks' balanced salt solution was used as the receptor fluid.

[6] = V-750, initial waiting 5 minutes
[7] = ionic liquid-water sample, UV1650PC, initial waiting 10 minutes

Molecule: C[N+](C)(C)CCO.O=C([O-])c1ccccc1O [Reference Example 5-sample, cholinium salicylate]
- LCST (lower critical solution temperature) [1, 6]: None

Molecule: CCc1cccc2c3c([nH]c12)C(CC)(CC(=O)O)OCC3 (stereo not drawn) [etodolac]
- solubility of etodolac to water [2]: 0.11 mg/mL

Molecule: CCCC[P+](CCCC)(CCCC)CCCC.Cc1ccc(S(=O)(=O)[O-])cc1 [Synthesis Example 16-sample, tetrabutylphosphonium p-toluenesulfonate]
- LCST (lower critical solution temperature) [1, 7]: 54.6 °C
- compatibility with water at room temperature [3]: compatible with water at room temperature

Molecule: CCCC[P+](CCCC)(CCCC)CCCC.O=S(=O)([O-])c1ccc(Cl)cc1 [Synthesis Example 12-sample, tetrabutylphosphonium 4-chlorobenzenesulfonate]
- LCST (lower critical solution temperature) [1, 7]: 25.6 °C
- compatibility with water at room temperature [3]: separated from water at room temperature

Molecule: diisopropanolammonium decanoate [Reference Example 4-sample]
- LCST (lower critical solution temperature) [1, 6]: None

Molecule: CCCC[P+](CCCC)(CCCC)CCCC.O=C([O-])c1ccc(C(F)(F)F)cc1O [Synthesis Example 1-sample, tetrabutylphosphonium 4-(trifluoromethyl)salicylate]
- LCST (lower critical solution temperature) [1, 7]: 23.6 °C
- 24-hour Cumulative permeation amount of pregabalin [4]: 3030 μg/cm^2
- 24-hour Cumulative permeation amount of lidocaine hydrochloride monohydrate ([5]; lidocaine hydrochloride monohydrate 10 mg/mL in 100 mmol/L aqueous solution or dispersion of the ionic liquid, control in water 308): 1100 μg/cm^2
- 24-hour Cumulative permeation amount of tramadol hydrochloride ([5]; tramadol hydrochloride 10 mg/mL in 100 mmol/L aqueous solution or dispersion of the ionic liquid, control in water 300): 2510 μg/cm^2
- compatibility with water at room temperature [3]: separated from water at room temperature

Molecule: CCCC[P+](CCCC)(CCCC)CCCC.O=S(=O)([O-])c1ccccc1 [Reference Example 2-sample, tetrabutylphosphonium benzenesulfonate]
- LCST (lower critical solution temperature) [1, 7]: None

Molecule: CCCCCCCCCC(=O)O.C[N+](C)(C)CCO [Reference Example 3-sample, cholinium decanoate, reference compound]
- LCST (lower critical solution temperature) [1, 6]: None
- 24-hour Cumulative permeation amount of pregabalin [4]: 354 μg/cm^2
